Measurements as given in patent publication US20260209215A1, “GLYCINE DERIVATIVES WITH P2X4 RECEPTOR-BLOCKING ACTIVITY AS DIAGNOSTICS AND FOR THE TREATMENT OF PAIN, INFLAMMATION, CANCER, AND OTHER P2X4 RECEPTOR-RELATED DISEASES” (RHEINISCHE-FRIEDRICH-WILHELMS-UNIVERSITÄT BONN, priority 2022, published 2026).

Molecular target: T1, P2X4 receptor (Homo sapiens, UniProt Q99571)
T1 construct: expressed in transfected cells; host or cells: 1321N1 astrocytoma cells, retroviral vector pQCXIN, G418 selection, monoclones
T1 sequence (Q99571 1-388): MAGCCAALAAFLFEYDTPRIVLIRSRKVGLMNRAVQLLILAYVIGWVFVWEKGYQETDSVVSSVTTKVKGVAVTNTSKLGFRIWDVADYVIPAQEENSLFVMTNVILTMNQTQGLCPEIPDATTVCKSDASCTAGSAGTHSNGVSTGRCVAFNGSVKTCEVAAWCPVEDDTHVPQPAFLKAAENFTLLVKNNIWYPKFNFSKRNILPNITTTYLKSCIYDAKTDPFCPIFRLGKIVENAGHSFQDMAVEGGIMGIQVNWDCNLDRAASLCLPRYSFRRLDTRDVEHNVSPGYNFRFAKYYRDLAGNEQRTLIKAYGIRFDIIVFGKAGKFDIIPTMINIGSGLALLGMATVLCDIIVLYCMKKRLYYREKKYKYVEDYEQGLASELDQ
Assay: Measurement of Ca2+ influx in transfected 1321N1 astrocytoma cells (P2X4 inhibitory potency)
Type: cell-based
Conditions: agonist-mediated Ca2+ influx, FLUO-4, 1321N1 astrocytoma cells; antagonists added 30 min before agonist
Method in brief: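 Stable 1321N1 astrocytoma cells expressing human P2X4, loaded with FLUO-4 AM (2.4 μM) in HBSS/HEPES pH 7.3 for 1 h at 23 °C. Antagonists added 30 min before agonist; fluorescence at 520 nm recorded for 30 s. Compounds tested at 7–8 concentrations spanning three log units.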

IC50 [nM]	SMILES
0.1 to 19	Cc1nsc(-c2ccc(C)c(NCC(=O)N3CCc4c(NC(=O)[C@H]5CCCN5)cccc43)c2)n1 [Example 81, (R)-N-(1-((2-methyl-5-(3-methyl-1,2,4-thiadiazol-5-yl)phenyl)glycyl)indolin-4-yl) pyrrolidine-2-carboxamide]
20 to 39	Cc1nsc(-c2ccc(C)c(NCC(=O)c3c[nH]c4ccccc34)c2)n1 [Example 102, 1-(1H-indol-3-yl)-2-((2-methyl-5-(3-methyl-1,2,4-thiadiazol-5-yl)phenyl)amino)ethan-1-one]
40 to 69	Cc1ccc(-c2nc(C3CC3)no2)cc1NCC(=O)N1CCc2c(OCC(C)(C)O)cccc21 [Example 50, 2-((5-(3-cyclopropyl-1,2,4-oxadiazol-5-yl)-2-methylphenyl)amino)-1-(4-(2-hydroxy-2-methylpropoxy)-indolin-1-yl)ethan-1-on]
> 100	Cc1nsc(-c2ccc(C)c(NCC(=O)N3CCc4c3ccnc4C(C)(C)O)c2)n1 [Example 90, 1-(4-(2-Hydroxypropan-2-yl)-2,3-dihydro-1H-pyrrolo[3,2-c]pyridin-1-yl)-2-((2-methyl-5-(3-methyl-1,2,4-thiadiazol-5-yl)phenyl)amino)ethan-1-one]
20 to 39	CC(=O)N(c1cccc2c1CCN2C(=O)CNc1cc(-c2nc(C)ns2)ccc1C)S(C)(=O)=O [Example 77, N-(1-((2-methyl-5-(3-methyl-1,2,4-thiadiazol-5-yl)phenyl)-glycyl)indolin-4-yl)-N-(methylsulfonyl)acetamide]
0.1 to 19	COc1cccc2c1CCN2C(=O)CNc1cc(-c2nc(C)no2)ccc1C [Example 2, 1-(4-methoxyindolin-1-yl)-2-((2-methyl-5-(3-methyl-1,2,4-oxadiazol-5-yl)phenyl)-amino)ethan-1-one]
0.1 to 19	Cc1nsc(-c2ccc(C)c(NCC(=O)N3CCc4c(OCCCO)cccc43)c2)n1 [Example 16, 1-(4-(3-hydroxypropoxy)indolin-1-yl)-2-((2-methyl-5-(3-methyl-1,2,4-thiadiazol-5-yl)phenyl)amino) ethan-1-one]
20 to 39	COc1cc2[nH]cc(C(=O)CNc3cc(-c4nc(C)ns4)cc(F)c3OC)c2cc1F [Example 101, 2-((3-fluoro-2-methoxy-5-(3-methyl-1,2,4-thiadiazol-5-yl)phenyl)amino)-1-(5-fluoro-6-methoxy-1H-indol-3-yl)ethan-1-one]
20 to 39	CC(=O)c1cccc2c1CCN2C(=O)CNc1cc(-c2nc(C)ns2)ccc1C [Example 37, 1-(4-acetylindolin-1-yl)-2-((2-methyl-5-(3-methyl-1,2,4-thiadiazol-5-yl)phenyl)amino)ethan-1-one]
20 to 39	Cc1ccc(-c2ccc(F)c(NCC(=O)N3CCc4c(OCC(C)(C)O)cccc43)c2)o1 [Example 43, 2-((2-fluoro-5-(5-methylfuran-2-yl)phenyl)amino)-1-(4-(2-hydroxy-2-methylpropoxy)-indolin-1-yl)ethan-1-one]
0.1 to 19	Cc1ccc(-c2nc(Br)ns2)cc1NCC(=O)N1CCc2c(OCC(C)(C)O)cccc21 [Example 14]
40 to 69	Cc1nsc(-c2ccc(C)c(NCC(=O)N3CCc4c(C(N)C(F)(F)F)cccc43)c2)n1 (centres unmarked) [Example 88, 1-(4-(1-amino-2,2,2-trifluoroethyl)indolin-1-yl)-2-((2-methyl-5-(3-methyl-1,2,4-thiadiazol-5-yl)phenyl)-amino)ethan-1-one]
20 to 39	Cc1nsc(-c2ccc(C)c(NCC(=O)N3CCc4c3cccc4C(C)(C)OC(=O)C(O)CO)c2)n1 (centres unmarked) [Example 67, 2-(1-((2-methyl-5-(3-methyl-1,2,4-thiadiazol-5-yl)phenyl)glycyl)indolin-4-yl)propan-2-yl 2,3-dihydroxy-propanoate]
0.1 to 19	Cc1nsc(-c2ccc(C)c(NCC(=O)N3CCc4c(-c5cccnc5)cccc43)c2)n1 [Example 32, 2-((2-methyl-5-(3-methyl-1,2,4-thiadiazol-5-yl)phenyl)amino)-1-(4-(pyridin-3-yl)indolin-1-yl)ethan-1-one]
0.1 to 19	CCc1nsc(-c2ccc(C)c(NCC(=O)N3CCc4c(NS(C)(=O)=O)cccc43)c2)n1 [Example 20, N-(1-((5-(3-ethyl-1,2,4-thiadiazol-5-yl)-2-methylphenyl)glycyl)indolin-4-yl) methanesulfonamide]
70 to 99	Cc1ccc(-c2ccc(C)c(NCC(=O)N3CCc4c(CO)cccc43)c2)nc1 [Example 116, 1-(4-(hydroxymethyl)indolin-1-yl)-2-((2-methyl-5-(5-methylpyridin-2-yl)phenyl)amino)ethan-1-one]

IC50 [nM]	SMILES
0.1 to 19	CCc1nsc(-c2ccc(F)c(NCC(=O)N3CCc4c(C(C)O)cccc43)c2)n1 (centres unmarked) [Example 21, 2-((5-(3-ethyl-1,2,4-thiadiazol-5-yl)-2-fluorophenyl)amino)-1-(4-(1-hydroxyethyl)indolin-1-yl)ethan-1-one]
0.1 to 19	CCc1nsc(-c2ccc(F)c(NCC(=O)N3CCc4c(N5CC(O)C5)cccc43)c2)n1 [Example 56, 2-((5-(3-ethyl-1,2,4-thiadiazol-5-yl)-2-fluorophenyl)amino)-1-(4-(3-hydroxyazetidin-1-yl)indolin-1-yl)ethan-1-one]
0.1 to 19	Cc1nsc(-c2ccc(C)c(NCC(=O)N3CCc4c3cccc4[C@@](C)(O)CO)c2)n1 [Example 64, 1-(4-(1,2-dihydroxypropan-2-yl)indolin-1-yl)-2-((2-methyl-5-(3-methyl-1,2,4-thiadiazol-5-yl)phenyl)amino)ethan-1-one]
0.1 to 19	Cc1nsc(-c2ccc(C)c(NCC(=O)N3CCc4c3cccc4N3C(=O)CCC3=O)c2)n1 [Example 17, 1-(1-((2-methyl-5-(3-methyl-1,2,4-thiadiazol-5-yl)phenyl)glycyl)indolin-4-yl) pyrrolidine-2,5-dione]
0.1 to 19	Cc1nsc(-c2ccc(C)c(NCC(=O)N3CCc4c3cccc4[C@](C)(O)CO)c2)n1 [Example 65, 1-(4-(1,2-dihydroxypropan-2-yl)indolin-1-yl)-2-((2-methyl-5-(3-methyl-1,2,4-thiadiazol-5-yl)phenyl)amino)ethan-1-one]
70 to 99	Cc1noc(-c2ccc(C)c(NCC(=O)N3CCc4c(C(N)C(F)(F)F)cccc43)c2)n1 (centres unmarked) [Example 89, 1-(4-(1-amino-2,2,2-trifluoroethyl)indolin-1-yl)-2-((2-methyl-5-(3-methyl-1,2,4-oxadiazol-5-yl)phenyl)-amino)ethan-1-one]
0.1 to 19	CCc1nsc(-c2ccc(C)c(NCC(=O)N3CCc4c(N5CC(C)OC(C)C5)cccc43)c2)n1 (centres unmarked) [Example 27, 1-(4-(2,6-dimethylmorpholino)indolin-1-yl)-2-((5-(3-ethyl-1,2,4-thiadiazol-5-yl)-2-methylphenyl)amino) ethan-1-one]
0.1 to 19	CCc1nsc(-c2ccc(C)c(NCC(=O)N3CCc4c3cccc4S(=O)(=O)NC)c2)n1 [Example 26, 1-((5-(3-ethyl-1,2,4-thiadiazol-5-yl)-2-methylphenyl)glycyl)-N-methylindoline-N-sulfonamide]
> 100	Cc1nsc(-c2ccc(C)c(NCC(=O)N3CCc4c3ccnc4C(C)O)c2)n1 (centres unmarked) [Example 92, 1-(4-(1-hydroxyethyl)-2,3-dihydro-1H-pyrrolo[3,2-c]pyridin-1-yl)-2-((2-methyl-5-(3-methyl-1,2,4-thiadiazol-5-yl)phenyl)amino)ethan-1-one]
> 100	CNC(=O)C1CN(C(=O)CNc2cc(-c3nc(C)ns3)ccc2C)c2ccccc21 (centres unmarked) [Example 59, N-methyl-1-((2-methyl-5-(3-methyl-1,2,4-thiadiazol-5-yl)phenyl)glycyl) indoline-3-carboxamide]
0.1 to 19	Cc1nsc(-c2ccc(C)c(NCC(=O)N3CCc4c3cccc4C(C)(O)CO)c2)n1 (racemic) [Example 62, 1-(4-(1,2-dihydroxypropan-2-yl)indolin-1-yl)-2-((2-methyl-5-(3-methyl-1,2,4-thiadiazol-5-yl)phenyl)amino)ethan-1-one]
40 to 69	COc1ccc(-c2ccc(C)cn2)cc1NCC(=O)N1CCc2c(OC)cccc21 [Example 120, 2-((2-methoxy-5-(5-methyl-pyridin-2-yl)phenyl)amino)-1-(4-methoxyindolin-1-yl) ethan-1-one]
70 to 99	Cc1noc(-c2ccc(F)c(NCC(=O)N3CCc4c(N)cccc43)c2)n1 [Example 75, 1-(4-aminoindolin-1-yl)-2-((2-fluoro-5-(3-methyl-1,2,4-oxadiazol-5-yl)phenyl)-amino)ethan-1-one]
20 to 39	Cc1nsc(-c2ccc(C)c(NCC(=O)N3CCc4c(N5CCC(O)C5)cccc43)c2)n1 (centres unmarked) [Example 68, 1-(4-(3-hydroxypyrrolidin-1-yl)indolin-1-yl)-2-((2-methyl-5-(3-methyl-1,2,4-thiadiazol-5-yl)phenyl)amino)ethan-1-one]
20 to 39	Cc1nsc(-c2ccc(C)c(NCC(=O)N3CCc4c(N)cccc43)c2)n1 [Example 74, 1-(4-aminoindolin-1-yl)-2-((2-methyl-5-(3-methyl-1,2,4-thiadiazol-5-yl)phenyl)amino)ethan-1-one]
40 to 69	CCc1noc(-c2cc(NCC(=O)c3c[nH]c4cc(OC)ccc34)c(OC)cc2Br)n1 [Example 109, 2-((4-bromo-5-(3-ethyl-1,2,4-oxadiazol-5-yl)-2-methoxy-phenyl)amino)-1-(6-methoxy-1H-indol-3-yl)ethan-1-one]
